Reference: PubChem BioAssay (NCI)
Where “and” joins values, the source holds several entries; their conditions need not be identical. Equal entries are not always repeated.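 Cultured in 96-well plates, cells were exposed to test compound for 48 hours across five concentrations. GI50 is the concentration that inhibits growth by half. TGI is the concentration that stops growth completely.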

Legend:
Assay in all cases: NCI anticancer screen, dose series, 48 h
BT-549 breast = system: BT-549 breast
HS 578T breast = system: HS 578T breast
MDA-MB-231 breast = system: MDA-MB-231 breast
MDA-MB-435 = system: MDA-MB-435
NCI/ADR-RES ovarian = system: NCI/ADR-RES ovarian

SMILES	TGI (BT-549 breast)	TGI (HS 578T breast)	TGI (MDA-MB-231 breast)	TGI (MDA-MB-435)	TGI (NCI/ADR-RES ovarian) [µM]	GI50 (BT-549 breast) [µM]	GI50 (HS 578T breast) [µM]	GI50 (MDA-MB-231 breast) [µM]	GI50 (MDA-MB-435) [µM]	GI50 (NCI/ADR-RES ovarian) [µM]
COc1ccccc1/C=C1\SC(=S)N(/C=C2\C(=O)Oc3ccccc3C2=O)C1=O	80.9 µM	> 100 µM	47.7 µM	86.5 µM	> 100					
Clc1nc(Cl)c(Cl)c(-c2ccccc2)n1	7.81 µM	> 100 µM		28.7 µM	> 100					
COC(=O)[C@@H](C)CNS(=O)(=O)N(c1cc(C(F)(F)F)cc(C(F)(F)F)c1)C1CCN(Cc2ccc(F)cc2)CC1	22.9 µM	27.1 µM	29.3 µM	24.8 µM	23.4	8.34	11.3	12.7	10.2	10.7
COc1ccc(/C=C/c2ccnc3ccccc23)c(OC)c1	> 10 µM	> 10 µM	> 10 µM	5.09 µM	> 10					
COc1cc(/C=C/c2cc(/C=C/c3ccc(O)c(OC)c3)n(C(=O)Nc3ccc(F)c(Cl)c3)n2)ccc1O	7.98 µM	2.74 µM	3.85 µM	0.102 µM	3.09	0.921	0.346	0.495	0.0223	0.126
OC[C@H]1CCCC1O (some centres not stated)	> 100 µM		> 100 µM	> 100 µM	> 100					
COc1ccc(-c2n[nH]nc2-c2cc(OC)c(OC)c(OC)c2)cc1		> 83.9 µM		< 0.01 µM			< 0.01		< 0.01	
NCC1Nc2ccccc2[C@@H](O)C1O (some centres not stated)		> 100 µM	> 100 µM	> 100 µM	> 100					
COc1ccccc1CNCCCN1C(=O)c2ccc3c4c(ccc(c24)C1=O)C(=O)N(CCCOCCCCOCCCN)C3=O		5.7 µM	4.14 µM	0.429 µM	4.37		2.02	1.08	0.2	1.46
COC(C(O)CO)C(O)C(O)C(=O)NNc1ccccc1 (configuration not stated)	> 100 µM	> 100 µM	> 100 µM	> 100 µM	> 100					
C=C1C(=O)O[C@@H]2/C=C(\C)CC/C=C(/COC(C)=O)C[C@@H](OC(C)=O)[C@@H]12	16.7 µM	> 70.2 µM	28.5 µM	54.4 µM	57.8					
CC(C)n1nc(-c2cc3cc(O)ccc3[nH]2)c2c(N)ncnc21	1.85 µM	0.503 µM	17.4 µM	1.77 µM	7.22	0.147	0.109	0.296	0.219	0.348
O=S(=O)(N=S(c1ccccc1)c1ccccc1)c1ccccc1	> 100 µM			> 100 µM	> 100					
O=C(N/N=C/c1ccccc1)c1c(-c2cccnc2)cnc2ccccc12	> 100 µM				> 100					
Oc1cccnc1CN1CCCCC1	> 100 µM	> 100 µM	> 100 µM	> 100 µM	> 100					
COc1ccc(Cn2cc3c(c2-c2ccccc2)CC(C)(C)c2cnoc2-3)cc1		7.91 µM	> 100 µM	1.01 µM			1.45	3.46	0.279	
N#C/C(=C1C=C(Br)/C(=N\O)C=C\1Cl)c1cccc2ccccc12	22.1 µM	17.5 µM	16.3 µM	10.4 µM	> 100					
CN(C)C(=O)c1cc2cnc(Nc3ccc(-c4csc5c(=S)cc(N6CCOCC6)oc45)cc3)nc2n1C1CCCC1	3.83 µM	3.98 µM	> 50 µM	> 50 µM	> 50	0.698	0.469	0.249	0.687	1.02
COc1cc(-c2ccc3c(c2)NC(=O)/C3=C\c2ccc[nH]2)ccc1O	> 50 µM	> 50 µM	> 50 µM		> 50	0.0968	0.026	0.0409		0.0177
Cn1c2c(c3ccccc31)CC1c3c(c4ccccc4n3C)CC21 (configuration not stated)	> 100 µM	> 100 µM	> 100 µM	> 100 µM	> 100					
COc1cc2c3c(n(CCCNC(=O)OCC4c5ccccc5-c5ccccc54)c(=O)c2cc1OC)-c1cc2c(cc1/C3=C\CCNC(=O)OCC1c3ccccc3-c3ccccc31)OCO2	> 50 µM	10.2 µM	> 44 µM	49 µM	> 50	12.4	1.29	> 19	> 28.9	> 38
c1ccc2c(c1)ccn2CCc1c[nH]c2ccccc12	> 10 µM	> 10 µM	> 10 µM	> 10 µM	> 10					
Cc1cn(C2CC(N(O)Cc3ccccc3)C(CO[Si](C)(C)C(C)(C)C)O2)c(=O)[nH]c1=O (configuration not stated)	34.7 µM and 30 µM	41.6 µM and 34.5 µM	32.6 µM and 31.3 µM	33.1 µM and 31.9 µM						
